Source: patent US12708627B2, “Combination therapy for VAV3 cancer” (Children's Hospital Medical Center, priority 2021, dated 2026)

Tests used:
p50GAP = p50GAP (Homo sapiens, UniProt Q07960); assay: p50GAP-stimulated GTP-hydrolysis of RAC, stopped-flow; assay type: biochemical; details: IODVA1 50 μM; absence kobs=6.6
Protocol: GAPDH was used as loading control.
RAC activity and signaling^16-26 is regulated by RAC-specific GAPs, GDIs, and GEFs. […] RAC was loaded with the fluorescently-labeled tamraGTP and the stimulated increase in GTP-hydrolysis by the C-terminal GAP homology of p50GAP was monitored by stopped-flow fast kinetics for 3 s.
Stopped-flow Spectrometry: GTPase assay and nucleotide exchange reaction were performed with a Hi-Tech Scientific (SF-61) stopped-flow instrument as described ^33 The excitation wavelengths were 543 nm and 362 nm for tamraGTP and mantGppNHp, respectively. For GTPase assay, equal volumes (600 μl) of 0.2 μM RAC1-tamraGTP and 10 μM of p50GAP were used. GTPase assay as well the protein-protein interaction were performed in presence of 5% DMSO.

VAV3 = target: T1, VAV3 (Homo sapiens, UniProt Q9UKW4); assay: Phosphorylated VAV3 (pY173) immunoblot in MDA-MB-231 cells; assay type: cell-based; set-up: these cells express high endogenous levels of VAV3; endogenous in cells; host or cells: MDA-MB-231; details: 3 μM, 15 min
T1 sequence (Q9UKW4 1-847): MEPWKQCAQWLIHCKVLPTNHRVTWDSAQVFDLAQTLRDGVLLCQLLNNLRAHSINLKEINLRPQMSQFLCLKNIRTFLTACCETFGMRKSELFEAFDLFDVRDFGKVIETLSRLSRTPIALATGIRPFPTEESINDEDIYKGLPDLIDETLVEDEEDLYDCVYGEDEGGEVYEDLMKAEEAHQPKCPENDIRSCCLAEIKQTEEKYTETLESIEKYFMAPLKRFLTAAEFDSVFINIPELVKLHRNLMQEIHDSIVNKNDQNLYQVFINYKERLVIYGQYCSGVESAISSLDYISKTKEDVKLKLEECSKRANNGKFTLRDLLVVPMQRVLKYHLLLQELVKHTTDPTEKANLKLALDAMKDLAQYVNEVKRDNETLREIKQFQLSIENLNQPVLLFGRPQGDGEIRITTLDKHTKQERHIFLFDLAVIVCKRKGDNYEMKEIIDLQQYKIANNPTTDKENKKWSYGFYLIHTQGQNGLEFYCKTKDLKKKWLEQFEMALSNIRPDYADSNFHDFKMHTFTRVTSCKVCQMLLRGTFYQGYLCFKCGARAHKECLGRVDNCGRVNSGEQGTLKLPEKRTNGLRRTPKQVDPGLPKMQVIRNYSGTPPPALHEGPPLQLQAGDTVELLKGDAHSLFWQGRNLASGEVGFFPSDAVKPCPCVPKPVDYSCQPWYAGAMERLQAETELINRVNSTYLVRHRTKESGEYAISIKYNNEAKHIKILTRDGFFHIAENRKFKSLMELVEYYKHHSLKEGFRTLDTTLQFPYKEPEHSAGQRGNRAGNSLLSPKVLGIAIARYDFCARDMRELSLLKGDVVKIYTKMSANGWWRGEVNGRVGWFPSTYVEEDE

[1] = test system: major wild-type kinases including ABL1 and SRC-like kinases; details: cited from earlier work
[2] = test system: CD34+ human peripheral blood mononuclear cells transduced with p190-BCR-ABL1; assay: Proliferation and survival of CD34+ cells transduced with p190-BCR-ABL1; assay type: cell-based; details: SEM, N=3
[3] = test system: empty vector (Mieg3)-expressing Ba/F3 cells; assay: Survival of empty vector Ba/F3 cells, trypan blue exclusion; assay type: cell-based, murine
From the text: Ba/F3 cells are bone marrow-derived, IL-3 dependent, murine pro-B cells widely used in studying the mechanism of leukemia initiation and progression and targeted therapy discovery^1. NALM-1 are human lymphoblastic cells that express p190-BCR-ABL1 but not Ikaros (IKZF1)^2. Applicant treated Ba/F3 cells transduced with retrovirus encoding either p190- or p210-BCR-ABL1 or Mieg3 empty vector^3 control as before.
MDA-MB-231 cells were maintained in IMEM (Invitrogen) supplemented with 10% FBS, 1% penicillin/streptomycin, and 1% amphotericin B. Ba/F3 cells were cultured in RPMI (GIBCO) supplemented with 10% FBS and IL-3 (10 ng/ml), NALM-1 cells were maintained in RPMI supplemented with 15% FBS. HEK293T cells were maintained with DMEM supplemented with 10% FBS and 1% penicillin/streptomycin. All cell lines were cultured at 37° C. in a 5% CO2 humidified incubator. Cell viability was assessed by trypan blue exclusion assay as previously described^4. Cytokines were from Peprotech.

Sequence of p50GAP (Q07960 244-431 limits assumed): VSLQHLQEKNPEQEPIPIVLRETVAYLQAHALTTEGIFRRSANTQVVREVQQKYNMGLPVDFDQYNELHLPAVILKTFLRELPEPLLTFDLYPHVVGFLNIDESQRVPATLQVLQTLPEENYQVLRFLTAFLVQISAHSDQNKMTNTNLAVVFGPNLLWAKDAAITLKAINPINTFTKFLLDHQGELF

## OC1(c2ccccc2)NC(=Nc2nc3ccccc3[nH]2)N=C1c1ccccn1 (centres unmarked) [IODVA1]
p50GAP
  kobs of p50GAP-stimulated GTP-hydrolysis in the presence of compound: 5.7
VAV3
  phosphorylated VAV3 (pY173) signal: significant decrease
[1]
  inhibitory activity in vitro against kinases: no inhibitory activity
[2]; 1 μM, day 5
  survival by trypan blue exclusion: 60±16%
[2]; 3 μM, day 3
  survival by trypan blue exclusion: 1±0.2%
[3]; 3 μM, day 1
  viability: not affected
[3]; 20 μM
  reduction of survival: 25.5%
[3]; up to 5 μM
  survival: not affected
